We go through three compounds from ChEMBL document CHEMBL1287667, “A targeted low molecular weight near-infrared fluorescent probe for prostate cancer” (Bioorg Med Chem Lett, 2010).

Assay [1] has as its target T1, Glutamate carboxypeptidase 2 (Homo sapiens, UniProt Q04609). As to the kind of experiment: Inhibition of PSMA in human LNCaP cells. The assay is classed as cell-based.
Target sequence in this assay (Q04609 whole entry): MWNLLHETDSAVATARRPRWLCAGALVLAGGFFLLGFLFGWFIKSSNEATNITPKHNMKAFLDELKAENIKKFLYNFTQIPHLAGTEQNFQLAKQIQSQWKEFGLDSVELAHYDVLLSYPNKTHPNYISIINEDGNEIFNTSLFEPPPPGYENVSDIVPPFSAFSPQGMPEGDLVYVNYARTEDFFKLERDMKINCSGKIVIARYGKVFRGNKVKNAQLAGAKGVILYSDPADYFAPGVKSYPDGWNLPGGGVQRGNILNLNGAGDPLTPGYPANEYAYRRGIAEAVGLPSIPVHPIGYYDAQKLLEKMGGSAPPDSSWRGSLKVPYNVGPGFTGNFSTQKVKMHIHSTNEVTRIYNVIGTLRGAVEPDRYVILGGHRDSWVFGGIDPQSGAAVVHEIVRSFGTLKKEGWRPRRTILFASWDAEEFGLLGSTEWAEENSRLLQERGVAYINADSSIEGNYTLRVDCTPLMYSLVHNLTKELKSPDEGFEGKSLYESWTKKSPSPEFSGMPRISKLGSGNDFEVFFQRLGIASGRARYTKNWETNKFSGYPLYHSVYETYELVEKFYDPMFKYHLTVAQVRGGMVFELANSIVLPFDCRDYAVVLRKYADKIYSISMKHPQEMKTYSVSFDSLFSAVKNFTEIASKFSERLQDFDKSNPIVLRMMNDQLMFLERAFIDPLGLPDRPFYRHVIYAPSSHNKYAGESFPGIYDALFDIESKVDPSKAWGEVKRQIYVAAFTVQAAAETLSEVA
Assay [2] concerns the target T1, Glutamate carboxypeptidase 2. As to the kind of experiment: Reversible inhibition of purified PSMA at 10 times IC50 after 25 mins measured after 100 fold dilution.
Target sequence in this assay (Q04609 whole entry, looked up): as the sequence (Q04609 whole entry) above

Calls of active or inactive are those of the source. The rule behind the calls is not given here.

As for `CCN1/C(=C/C=C/C=C/C2=[N+](CCCCCC(=O)[O-])c3ccc4c(S(=O)(=O)O)cc(S(=O)(=O)O)cc4c3C2(C)C)C(C)(C)c2c1ccc1c(S(=O)(=O)O)cc(S(=O)(=O)O)cc21`, in assay [1], the IC50 (as a rule, the concentration that inhibits the measured activity by half) was 6100 nM. With `N[C@@H](CCC(=O)N[C@@H](COP(=O)(O)O[C@@H](CCC(=O)O)C(=O)O)C(=O)O)C(=O)O`, the IC50 in assay [1] is 144 nM. Moreover, the outcome in assay [2] was Active. The corresponding values for `CCN1/C(=C/C=C/C=C/C2=[N+](CCCCCC(=O)N[C@@H](CCC(=O)N[C@@H](COP(=O)([O-])O[C@@H](CCC(=O)O)C(=O)O)C(=O)O)C(=O)O)c3ccc4c(S(=O)(=O)O)cc(S(=O)(=O)O)cc4c3C2(C)C)C(C)(C)c2c1ccc1c(S(=O)(=O)O)cc(S(=O)(=O)O)cc21` are 0.55 nM and “Active”.
